Data reported in publication PMC12720098, “Prolintane analogs as hybrid monoamine transporter ligands: Structural determinants and species differences” (The Journal of Biological Chemistry, 2025).
“Also recorded” adds a separate entry of the source. Where a name gives a salt, the structure may show the parent alone. Read-outs that look alike come from different tables or passages of the source.

Legend:
native HEK293 cells = assay: Whole-cell patch-clamp control in native HEK293 cells without transfection; type: cell-based, human; conditions: prolintane 30 µM, 5-HT 10 µM (Fig. S3)
Protocol: One day prior to recording, either native HEK293 cells or HEK293 cells stably expressing monoamine transporters were seeded at low density onto PDL-coated 35 mm dishes. Patch-clamp experiments were conducted at a holding potential of −60 mV, with substrate-induced currents recorded at room temperature (20–24 °C) using an […] amplifier and pClamp 11.2 software (MDS Analytical Technologies). During recordings, cells were continuously superfused via a DAD-12 perfusion system and an 8-tube manifold (ALA Scientific Instruments), delivering an external solution composed of 140 mM NaCl, 2.5 mM CaCl2, 3 mM KCl, 2 mM MgCl2, 20 mM glucose, and 10 mM HEPES, with pH adjusted to 7.3 using NaOH. The intracellular pipette solution, designed to mimic physiological ionic conditions, contained 133 mM potassium gluconate, 5.9 mM NaCl, 1 mM CaCl2, 0.7 mM MgCl2, 10 mM HEPES, and 10 mM EGTA, with pH set to 7.2 using KOH. Currents were filtered at 1 kHz and digitized at 10 kHz via a Digidata 1550 digitizer (MDS Analytical Technologies), followed by analysis in Clampfit 10.2 (Molecular Devices). Substance-induced currents were normalized to the current elicited by a saturating concentration of 5-HT (10 μM) of the same cell. Holding currents were subtracted, and a 50 Hz digital Gaussian low-pass filter was applied to the traces for further analysis.

hDAT = biological target: T1, hDAT (Homo sapiens, UniProt Q01959); assay: Batch release assay ([3H]MPP+) in transfected HEK293 cells; type: cell-based; conditions: % efflux of total uptake, compounds approximately at IC50 concentration
T1 construct: expressed in transfected cells
Protocol: (§1) Batch release assays were performed as described previously ([44]). In brief, HEK293 cells stably expressing monoamine transporters were seeded similar to the procedure used for uptake inhibition assays. A day after seeding cells were pre-loaded with 50 μl/well 0.015 μM [^3H]MPP^+ (hDAT, hNET), or 0.08 μM [^3H]5-HT (hSERT) for 20 min at 37 °C. Then cells were washed four times for 3 to 4 min each and further incubated with KHB or KHB + monensin. After 10 min of incubation, two (screening) to four (full traces; hSERT) 2 min incubations were performed to establish a baseline release without substance. […] Each fraction was transferred to an empty well in the 96-well plate. For screening, a known inhibitor (hDAT, hNET: 50 μM GBR12909) and releaser (hDAT, hNET: 10 μM S-(+)-amphetamine) were used as controls. Ultima Gold XR scintillation cocktail was added to the remaining cells, and each well contained a release fraction. The counted radioactivity in the respective fraction was expressed as a percentage of total radioactivity at the start of the fraction.
(§2) Half-maximal inhibitory concentrations (IC50) were obtained from fitting a sigmoidal dose–response ( Y=Bottom+Top−Bottom/1+10^((LogIC50−X)·HillSlope) ) in GraphPad Prism 10.3.1 (GraphPad Software Inc.). Uptake inhibition data were evaluated by one-way ANOVA followed by Tukey's multiple comparisons test. Release data were analyzed using a two-way ANOVA (batch release) or a mixed-effects model with Geisser-Greenhouse correction (time-dependent traces) employing Šidák correction for comparing differences between compounds with or without the addition of monensin.

hNET = biological target: T2, hNET (Homo sapiens, UniProt P23975); assay: as above; type: cell-based; conditions: % efflux of total uptake, compounds approximately at IC50 concentration
T2 construct: expressed in transfected cells
Protocol: as §1, §2

hSERT = biological target: T3, hSERT (Homo sapiens, UniProt P31645); type: cell-based
T3 construct: expressed in transfected cells
Protocol: as §1, §2

rSERT = rSERT (Rattus norvegicus, UniProt P31652); type: cell-based; set-up: expressed in transfected cells; conditions: for Mean diff, rSERT efflux ± Mon (Šídák's multiple comparisons test): drug alone vs drug + monensin (Mon)
Protocol: A day prior to the experiment, HEK293 cells stably expressing hSERT or rat SERT (rSERT) were seeded at a density of 100,000 cells per channel into 6 channel flow ibidi slides (Gräfelfing, Germany). On the day of the experiments, cells were preloaded with 0.1 μM [^3H]5-HT at 37 °C, 5% CO2 for 20 min. Subsequently, the slides were transferred to the superfusion apparatus ([59]). Cells were then washed with KHB for 15 min under a constant flow of 0.5 ml/min. Fractions were collected every 2 min in 8 ml vials containing 2 ml scintillation cocktail. Collection began with three baseline fractions using KHB, followed by four additional basal release fractions with KHB, either with or without 10 μM monensin. […] To assess residual radioactivity within the cells, they were lysed with 1% sodium dodecyl sulfate (SDS), and three final fractions were obtained. The measured tritiated substrate in each fraction was expressed as a percentage of the initial tritiated substrate present at the start of that fraction.
Uptake inhibition data were evaluated by one-way ANOVA followed by Tukey's multiple comparisons test. Release data were analyzed using a two-way ANOVA (batch release) or a mixed-effects model with Geisser-Greenhouse correction (time-dependent traces) employing Šidák correction for comparing differences between compounds with or without the addition of monensin.

Sequence of rSERT (P31652 whole entry, the tested form may be a part): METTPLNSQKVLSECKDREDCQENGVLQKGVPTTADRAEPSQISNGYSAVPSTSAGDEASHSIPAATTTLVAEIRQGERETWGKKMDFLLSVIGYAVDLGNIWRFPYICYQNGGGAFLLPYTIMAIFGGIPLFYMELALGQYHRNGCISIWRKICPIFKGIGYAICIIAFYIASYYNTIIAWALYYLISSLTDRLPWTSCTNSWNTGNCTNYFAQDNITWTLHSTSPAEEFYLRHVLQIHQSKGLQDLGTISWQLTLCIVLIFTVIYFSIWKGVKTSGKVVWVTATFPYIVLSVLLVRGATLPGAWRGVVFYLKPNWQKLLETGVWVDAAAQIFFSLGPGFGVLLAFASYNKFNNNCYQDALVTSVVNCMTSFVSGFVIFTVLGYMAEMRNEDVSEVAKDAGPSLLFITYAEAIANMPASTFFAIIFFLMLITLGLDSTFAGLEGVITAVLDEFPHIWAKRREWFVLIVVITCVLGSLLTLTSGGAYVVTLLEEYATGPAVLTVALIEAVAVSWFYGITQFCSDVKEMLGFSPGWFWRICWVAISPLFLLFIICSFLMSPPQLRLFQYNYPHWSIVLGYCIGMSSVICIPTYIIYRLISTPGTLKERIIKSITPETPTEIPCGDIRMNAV
T1 sequence (Q01959 whole entry): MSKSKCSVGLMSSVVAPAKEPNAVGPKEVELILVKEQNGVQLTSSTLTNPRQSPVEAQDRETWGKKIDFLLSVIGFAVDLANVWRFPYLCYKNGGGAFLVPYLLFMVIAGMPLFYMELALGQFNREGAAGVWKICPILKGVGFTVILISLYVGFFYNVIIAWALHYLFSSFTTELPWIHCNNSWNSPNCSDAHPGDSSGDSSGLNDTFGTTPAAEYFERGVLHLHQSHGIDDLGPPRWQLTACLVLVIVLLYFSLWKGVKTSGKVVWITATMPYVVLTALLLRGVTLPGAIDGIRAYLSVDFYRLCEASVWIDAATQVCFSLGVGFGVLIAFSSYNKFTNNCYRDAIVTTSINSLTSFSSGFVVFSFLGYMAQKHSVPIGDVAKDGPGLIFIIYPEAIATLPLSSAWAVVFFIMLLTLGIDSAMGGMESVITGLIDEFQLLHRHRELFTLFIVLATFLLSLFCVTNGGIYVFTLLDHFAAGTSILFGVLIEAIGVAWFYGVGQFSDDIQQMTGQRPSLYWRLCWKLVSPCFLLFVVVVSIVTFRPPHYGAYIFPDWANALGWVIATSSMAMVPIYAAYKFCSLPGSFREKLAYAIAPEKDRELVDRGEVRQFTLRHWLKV
T2 sequence (P23975 whole entry): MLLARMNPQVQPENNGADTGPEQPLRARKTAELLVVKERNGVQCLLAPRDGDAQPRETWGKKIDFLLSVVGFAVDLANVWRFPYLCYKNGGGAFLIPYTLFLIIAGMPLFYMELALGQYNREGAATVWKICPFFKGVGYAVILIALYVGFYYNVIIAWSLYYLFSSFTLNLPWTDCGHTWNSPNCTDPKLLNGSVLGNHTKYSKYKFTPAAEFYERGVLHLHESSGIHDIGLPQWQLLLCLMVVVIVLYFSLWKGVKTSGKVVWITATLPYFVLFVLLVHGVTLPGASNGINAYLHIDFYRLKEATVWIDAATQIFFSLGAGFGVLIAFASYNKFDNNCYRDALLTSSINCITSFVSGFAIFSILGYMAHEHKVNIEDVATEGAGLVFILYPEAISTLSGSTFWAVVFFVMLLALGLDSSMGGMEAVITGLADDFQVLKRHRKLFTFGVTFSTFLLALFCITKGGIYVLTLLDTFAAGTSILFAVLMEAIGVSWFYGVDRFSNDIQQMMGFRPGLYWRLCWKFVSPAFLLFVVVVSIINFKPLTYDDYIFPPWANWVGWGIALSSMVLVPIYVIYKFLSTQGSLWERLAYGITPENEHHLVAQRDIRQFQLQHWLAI
T3 sequence (P31645 whole entry): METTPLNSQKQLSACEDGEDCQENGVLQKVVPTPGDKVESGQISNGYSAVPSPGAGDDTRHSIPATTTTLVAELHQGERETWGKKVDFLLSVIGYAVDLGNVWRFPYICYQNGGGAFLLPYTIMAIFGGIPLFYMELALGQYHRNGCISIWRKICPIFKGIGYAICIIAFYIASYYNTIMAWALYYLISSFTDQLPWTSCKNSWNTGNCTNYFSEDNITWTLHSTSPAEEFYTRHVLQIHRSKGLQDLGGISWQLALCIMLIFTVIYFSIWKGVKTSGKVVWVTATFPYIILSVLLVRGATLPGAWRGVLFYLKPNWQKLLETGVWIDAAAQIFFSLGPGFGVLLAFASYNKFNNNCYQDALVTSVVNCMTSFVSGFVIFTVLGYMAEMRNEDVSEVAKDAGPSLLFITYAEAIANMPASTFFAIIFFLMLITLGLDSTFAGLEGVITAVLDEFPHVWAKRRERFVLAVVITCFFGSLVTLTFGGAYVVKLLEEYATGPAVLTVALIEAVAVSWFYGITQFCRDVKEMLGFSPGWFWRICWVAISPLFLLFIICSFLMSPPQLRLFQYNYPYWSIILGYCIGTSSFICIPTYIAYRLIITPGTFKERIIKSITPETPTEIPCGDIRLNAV

NCCc1c[nH]c2ccc(O)cc12 [5-HT, serotonin]
current in native HEK293 cells without transfection (native HEK293 cells): no current could be recorded; also recorded: do not induce currents

Fc1ccc(C(OCCN2CCN(CCCc3ccccc3)CC2)c2ccc(F)cc2)cc1 [GBR12909, vanoxerine, reference compound]
hDAT-mediated efflux, predicted (LS) mean diff, No mon - Mon (hDAT): -0.7725
hNET-mediated efflux, predicted (LS) mean diff, No mon - Mon (hNET): -0.7072

C[C@H](N)Cc1ccccc1 [S-(+)-amphetamine, dextroamphetamine hemi sulfate salt, reference compound]
hDAT-mediated efflux, predicted (LS) mean diff, No mon - Mon (hDAT): -1.735
hNET-mediated efflux, predicted (LS) mean diff, No mon - Mon (hNET): -5.397

CC(N)Cc1ccc(Cl)cc1 (stereo not shown) [pCA, para-chloroamphetamine]
hSERT-mediated efflux, predicted (LS) mean diff, No mon - Mon (hSERT): -18.87
Mean diff, rSERT efflux ± Mon (Šídák's multiple comparisons test) (rSERT; Row 1 (time fraction)): 0.1306
Mean diff, rSERT efflux ± Mon (Šídák's multiple comparisons test) (rSERT; Row 2 (time fraction)): 0.1761
Mean diff, rSERT efflux ± Mon (Šídák's multiple comparisons test) (rSERT; Row 3 (time fraction)): 0.2854
Mean diff, rSERT efflux ± Mon (Šídák's multiple comparisons test) (rSERT; Row 4 (time fraction)): 0.1377
Mean diff, rSERT efflux ± Mon (Šídák's multiple comparisons test) (rSERT; Row 5 (time fraction)): -0.4218
Mean diff, rSERT efflux ± Mon (Šídák's multiple comparisons test) (rSERT; Row 6 (time fraction)): -0.8916
Mean diff, rSERT efflux ± Mon (Šídák's multiple comparisons test) (rSERT; Row 7 (time fraction)): -1.153
Mean diff, rSERT efflux ± Mon (Šídák's multiple comparisons test) (rSERT; Row 8 (time fraction)): -7.649
Mean diff, rSERT efflux ± Mon (Šídák's multiple comparisons test) (rSERT; Row 9 (time fraction)): -4.816
Mean diff, rSERT efflux ± Mon (Šídák's multiple comparisons test) (rSERT; Row 10 (time fraction)): -3.007
Mean diff, rSERT efflux ± Mon (Šídák's multiple comparisons test) (rSERT; Row 11 (time fraction)): -2.599
Mean diff, rSERT efflux ± Mon (Šídák's multiple comparisons test) (rSERT; Row 12 (time fraction)): -2.043
magnitude of [3H]5-HT release in cells expressing rSERT compared to hSERT (rSERT; superfusion, HEK293 cells): significantly lower magnitude
